Assay results published in ChEMBL document CHEMBL4431321, “Profiling of Flavonol Derivatives for the Development of Antitrypanosomatidic Drugs” (J Med Chem, 2016).
pEC50, pIC50: −log10 of the molar value. Calls of active or inactive are those of the source. The calls are words filed in the database; no cut-off is given here.

What was measured:
[1] = tested on: Trypanosoma brucei brucei; test: Antitrypanosomal activity against Trypanosoma brucei brucei Lister 427 bloodstream forms after 72 hrs by resazurin-based assay; assay type: functional, organism-based; settings: Lister 427, 72 h
[2] = tested on: Trypanosoma brucei; test: Inhibition of Trypanosoma brucei PTR1 at 50 uM using H2B as substrate incubated for 10 mins followed by addition of NADPH measured for 10 to 50 mins
[3] = tested on: Leishmania mexicana; test: Inhibition of Leishmania mexicana DHFR at 50 uM using folic aid as substrate by spectrophotometric analysis
[4] = tested on: Trypanosoma brucei; test: Inhibition of Trypanosoma brucei DHFR at 50 uM using folic aid as substrate by spectrophotometric analysis
[5] = biological target: T1, Dihydrofolate reductase (Homo sapiens) (UniProt P00374); test: Inhibition of human DHFR at 50 uM using folic aid as substrate by spectrophotometric analysis
T1 sequence (whole entry): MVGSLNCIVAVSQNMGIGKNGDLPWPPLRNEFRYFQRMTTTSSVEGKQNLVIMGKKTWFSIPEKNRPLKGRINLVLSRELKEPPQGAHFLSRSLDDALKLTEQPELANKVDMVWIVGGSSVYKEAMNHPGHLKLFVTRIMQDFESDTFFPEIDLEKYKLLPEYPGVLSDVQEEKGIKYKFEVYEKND

[6] = biological target: Thymidylate synthase (Homo sapiens) (UniProt P04818); test: Inhibition of human thymidylate synthase at 50 uM using folic aid as substrate by spectrophotometric analysis
Thymidylate synthase (Homo sapiens), sequence (P04818 2-313 limits assumed): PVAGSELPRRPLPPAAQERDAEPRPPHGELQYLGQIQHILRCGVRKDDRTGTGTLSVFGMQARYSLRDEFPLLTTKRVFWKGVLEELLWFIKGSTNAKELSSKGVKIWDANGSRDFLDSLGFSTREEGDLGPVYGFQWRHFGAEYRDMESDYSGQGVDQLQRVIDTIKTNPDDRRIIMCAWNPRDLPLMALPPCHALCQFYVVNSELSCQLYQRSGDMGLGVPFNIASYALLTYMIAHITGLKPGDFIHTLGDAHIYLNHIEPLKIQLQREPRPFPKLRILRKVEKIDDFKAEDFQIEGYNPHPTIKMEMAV

[7] = tested on: 786-0; test: Mitochondrial toxicity in human 786-O cells incubated for 6 hrs by mitotracker red staining based-uptake method; assay type: cell-based; settings: 786-0, 6 h
[8] = tested on: A549; test: Cytotoxicity against human A549 cells at 100 uM after 48 hrs by cell titer glo assay; assay type: cell-based; settings: a549, 48 h
[9] = tested on: WI-38; test: Cytotoxicity against human WI38 cells at 100 uM after 48 hrs by cell titer glo assay; assay type: cell-based; settings: wi-38, 48 h
[10] = biological target: Aurora kinase B (Homo sapiens) (UniProt Q96GD4); test: Inhibition of recombinant full-length human aurora B kinase expressed in baculovirus system using MBP as substrate at 10 uM incubated for 45 mins by ADP-glo kinase assay
Aurora kinase B (Homo sapiens), sequence (Q96GD4 whole entry): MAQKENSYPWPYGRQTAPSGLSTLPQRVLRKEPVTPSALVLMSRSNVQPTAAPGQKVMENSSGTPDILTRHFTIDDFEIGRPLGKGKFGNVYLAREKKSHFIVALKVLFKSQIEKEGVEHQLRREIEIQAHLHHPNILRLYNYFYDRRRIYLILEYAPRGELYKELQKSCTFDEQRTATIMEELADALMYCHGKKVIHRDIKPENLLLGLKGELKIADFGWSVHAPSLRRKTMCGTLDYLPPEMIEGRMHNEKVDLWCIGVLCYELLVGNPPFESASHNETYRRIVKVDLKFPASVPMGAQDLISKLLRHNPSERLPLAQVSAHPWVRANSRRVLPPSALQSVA

[11] = tested on: Leishmania infantum; test: Antiparasitic activity against Leishmania infantum MOM/MA67ITMAP263 amastigotes infected in human THP1 cells at 10 uM after 72 hrs by steady-glo luminescence assay; assay type: functional
[12] = Cytotoxicity against human THP1 cells after 72 hrs by MTT assay; assay type: cell-based; settings: THP-1 cells; for MNTC at 72 h: read-out: NOAEL
[13] = in vitro; settings: human, THP-1 cells
Description: Selectivity index, ratio of CC50 for human THP1 cells to EC50 for Trypanosoma brucei brucei Lister 427 bloodstream forms

[14] = tested on: Trypanosoma cruzi; test: Antitrypanosomal activity against Trypanosoma cruzi Y trypomastigotes infected in human HG39 cells after 48 hrs by RT-PCR assay
[15] = (§1) Inhibition of Trypanosoma brucei PTR1 using H2B as substrate incubated for 10 mins followed by addition of NADPH measured for 10 to 50 mins
[16] = biological target: Dihydrofolate reductase (Homo sapiens, UniProt P00374); test: Inhibition of human DHFR using folic aid as substrate by spectrophotometric analysis
[17] = tested on: Leishmania mexicana; test: Inhibition of Leishmania mexicana PTR1 at 50 uM using H2B as substrate incubated for 10 mins followed by addition of NADPH measured for 10 to 50 mins
[18] = biological target: Voltage-gated inwardly rectifying potassium channel KCNH2 (Homo sapiens, UniProt Q12809); test: Inhibition of human ERG in membranes incubated for 2 hrs by fluorescence polarization assay
Voltage-gated inwardly rectifying potassium channel KCNH2, sequence (Q12809 whole entry): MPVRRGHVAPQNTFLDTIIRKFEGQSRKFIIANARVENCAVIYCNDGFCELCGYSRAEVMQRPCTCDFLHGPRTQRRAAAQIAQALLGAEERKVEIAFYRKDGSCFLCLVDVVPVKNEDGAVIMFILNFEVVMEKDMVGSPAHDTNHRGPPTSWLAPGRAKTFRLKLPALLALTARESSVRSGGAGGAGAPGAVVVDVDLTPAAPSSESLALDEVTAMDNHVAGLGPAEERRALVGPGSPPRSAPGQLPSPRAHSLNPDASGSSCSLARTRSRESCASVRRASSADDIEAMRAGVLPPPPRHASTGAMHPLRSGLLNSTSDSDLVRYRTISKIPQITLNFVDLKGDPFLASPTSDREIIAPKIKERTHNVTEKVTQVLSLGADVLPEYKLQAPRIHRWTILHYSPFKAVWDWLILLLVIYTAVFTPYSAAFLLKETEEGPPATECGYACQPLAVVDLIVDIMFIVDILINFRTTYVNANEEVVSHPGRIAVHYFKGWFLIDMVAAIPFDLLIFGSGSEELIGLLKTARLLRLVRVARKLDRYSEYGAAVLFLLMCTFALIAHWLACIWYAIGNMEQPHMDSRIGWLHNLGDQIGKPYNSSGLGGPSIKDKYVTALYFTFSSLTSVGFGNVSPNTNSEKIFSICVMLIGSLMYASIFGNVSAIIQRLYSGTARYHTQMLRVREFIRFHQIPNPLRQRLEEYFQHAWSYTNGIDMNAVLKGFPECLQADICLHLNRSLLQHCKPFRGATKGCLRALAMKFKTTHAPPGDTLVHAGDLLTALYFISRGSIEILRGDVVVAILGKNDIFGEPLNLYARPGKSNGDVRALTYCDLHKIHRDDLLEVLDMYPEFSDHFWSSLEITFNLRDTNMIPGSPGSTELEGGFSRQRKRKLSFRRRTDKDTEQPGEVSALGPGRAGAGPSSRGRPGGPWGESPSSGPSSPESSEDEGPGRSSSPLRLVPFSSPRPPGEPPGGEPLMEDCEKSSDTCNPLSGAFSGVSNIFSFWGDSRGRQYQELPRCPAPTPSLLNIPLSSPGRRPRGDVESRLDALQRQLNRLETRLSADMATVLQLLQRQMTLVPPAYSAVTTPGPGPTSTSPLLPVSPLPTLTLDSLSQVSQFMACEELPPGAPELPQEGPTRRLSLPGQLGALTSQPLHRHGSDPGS

[19] = Solubility of compound in PBS incubated for 18 hrs by UV-visible spectroscopic analysis; assay type: physicochemical; settings: buffer
[20] = Half life BALB/c mouse blood at 1 mg/kg, iv administered as single dose by HPLC analysis; assay type: ADME, organism-based
[21] = Drug uptake in BALB/c mouse blood at 1 mg/kg, iv administered as single dose after 30 mins by HPLC analysis; assay type: ADME, organism-based; settings: in vivo, 0.5 h
[22] = Drug uptake in BALB/c mouse plasma at 1 mg/kg, iv administered as single dose through encapsulation in PLGA nanoparticles by HPLC analysis; assay type: ADME, organism-based; settings: in vivo
[23] = Drug uptake in BALB/c mouse plasma at 1 mg/kg, po administered as single dose through encapsulation in PLGA nanoparticles by HPLC analysis; assay type: ADME, organism-based; settings: in vivo
[24] = tested on: Trypanosoma brucei brucei; test: Antitrypanosomal activity against Trypanosoma brucei brucei Lister 427 bloodstream forms at 10 uM after 72 hrs by resazurin-based assay; assay type: functional, organism-based
[25] = tested on: Trypanosoma brucei brucei; test: Antitrypanosomal activity against Trypanosoma brucei brucei Lister 427 bloodstream forms assessed as synergy coefficient at 1.25 to 5 uM after 72 hrs in presence of MTX by resazurin-based assay; assay type: functional
[26] = biological target: T2, Cytochrome P450 1A2 (Homo sapiens, UniProt P05177); test: (§2) Inhibition of human microsomal CYP1A2 expressed in baculovirus infected BTI-TN-5B1-4 cells at 10 uM incubated for 30 mins by luciferase assay; assay type: ADME; settings: bti-tn-5b1-4, 0.5 h, 10 µM
T2 sequence (P05177 whole entry): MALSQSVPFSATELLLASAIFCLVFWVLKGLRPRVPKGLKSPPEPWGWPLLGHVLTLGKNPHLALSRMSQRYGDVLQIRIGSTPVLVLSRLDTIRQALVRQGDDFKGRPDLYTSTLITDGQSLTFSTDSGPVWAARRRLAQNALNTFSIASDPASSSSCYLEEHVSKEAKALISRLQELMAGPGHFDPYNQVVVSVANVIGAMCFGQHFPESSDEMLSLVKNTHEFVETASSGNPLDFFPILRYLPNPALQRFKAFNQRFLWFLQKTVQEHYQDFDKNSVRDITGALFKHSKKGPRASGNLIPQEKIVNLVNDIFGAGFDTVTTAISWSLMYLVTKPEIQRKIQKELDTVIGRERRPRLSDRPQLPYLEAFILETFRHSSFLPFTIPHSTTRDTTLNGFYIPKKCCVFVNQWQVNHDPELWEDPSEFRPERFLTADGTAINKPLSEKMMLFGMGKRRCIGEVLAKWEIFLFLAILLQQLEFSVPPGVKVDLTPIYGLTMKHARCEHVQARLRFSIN

[27] = biological target: T2, Cytochrome P450 1A2; test: Inhibition of human microsomal CYP1A2 expressed in baculovirus infected BTI-TN-5B1-4 cells incubated for 30 mins by luciferase assay; assay type: ADME
[28] = biological target: Cytochrome P450 2C9 (Homo sapiens, UniProt P11712); test: Inhibition of human microsomal CYP2C9 expressed in baculovirus infected BTI-TN-5B1-4 cells incubated for 30 mins by luciferase assay; assay type: ADME
Cytochrome P450 2C9, sequence (P11712 whole entry): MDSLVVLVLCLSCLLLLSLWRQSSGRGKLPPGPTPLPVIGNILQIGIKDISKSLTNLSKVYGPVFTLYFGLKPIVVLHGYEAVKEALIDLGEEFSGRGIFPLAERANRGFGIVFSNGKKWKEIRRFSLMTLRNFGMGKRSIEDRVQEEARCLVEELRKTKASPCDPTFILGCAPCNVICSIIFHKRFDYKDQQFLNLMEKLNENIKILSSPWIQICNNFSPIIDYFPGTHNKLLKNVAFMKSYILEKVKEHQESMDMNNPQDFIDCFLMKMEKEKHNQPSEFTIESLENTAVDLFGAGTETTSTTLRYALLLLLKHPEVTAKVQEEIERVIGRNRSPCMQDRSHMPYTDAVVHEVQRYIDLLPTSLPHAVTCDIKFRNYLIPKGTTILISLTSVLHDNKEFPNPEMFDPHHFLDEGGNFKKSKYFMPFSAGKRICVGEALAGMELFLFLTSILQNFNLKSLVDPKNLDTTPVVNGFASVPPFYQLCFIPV

[29] = biological target: Cytochrome P450 2C19 (Homo sapiens, UniProt P33261); test: Inhibition of human microsomal CYP2C19 expressed in baculovirus infected BTI-TN-5B1-4 cells incubated for 30 mins by luciferase assay; assay type: ADME
Cytochrome P450 2C19, sequence (P33261 whole entry): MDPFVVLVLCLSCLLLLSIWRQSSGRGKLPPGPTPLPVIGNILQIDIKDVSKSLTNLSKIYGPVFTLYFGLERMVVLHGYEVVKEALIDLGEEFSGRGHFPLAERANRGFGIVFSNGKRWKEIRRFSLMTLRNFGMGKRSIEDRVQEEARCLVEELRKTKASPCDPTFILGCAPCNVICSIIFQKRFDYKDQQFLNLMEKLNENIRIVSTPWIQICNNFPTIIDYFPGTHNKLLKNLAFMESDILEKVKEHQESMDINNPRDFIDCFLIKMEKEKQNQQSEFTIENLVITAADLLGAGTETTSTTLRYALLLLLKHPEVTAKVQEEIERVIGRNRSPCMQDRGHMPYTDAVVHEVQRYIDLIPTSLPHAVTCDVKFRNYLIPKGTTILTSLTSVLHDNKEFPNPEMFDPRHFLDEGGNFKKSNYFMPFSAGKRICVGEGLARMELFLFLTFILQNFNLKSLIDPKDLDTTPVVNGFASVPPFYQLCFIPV

[30] = biological target: Cytochrome P450 2D6 (Homo sapiens, UniProt P10635); test: Inhibition of human microsomal CYP2D6 expressed in baculovirus infected BTI-TN-5B1-4 cells incubated for 30 mins by luciferase assay; assay type: ADME
Cytochrome P450 2D6, sequence (P10635 whole entry): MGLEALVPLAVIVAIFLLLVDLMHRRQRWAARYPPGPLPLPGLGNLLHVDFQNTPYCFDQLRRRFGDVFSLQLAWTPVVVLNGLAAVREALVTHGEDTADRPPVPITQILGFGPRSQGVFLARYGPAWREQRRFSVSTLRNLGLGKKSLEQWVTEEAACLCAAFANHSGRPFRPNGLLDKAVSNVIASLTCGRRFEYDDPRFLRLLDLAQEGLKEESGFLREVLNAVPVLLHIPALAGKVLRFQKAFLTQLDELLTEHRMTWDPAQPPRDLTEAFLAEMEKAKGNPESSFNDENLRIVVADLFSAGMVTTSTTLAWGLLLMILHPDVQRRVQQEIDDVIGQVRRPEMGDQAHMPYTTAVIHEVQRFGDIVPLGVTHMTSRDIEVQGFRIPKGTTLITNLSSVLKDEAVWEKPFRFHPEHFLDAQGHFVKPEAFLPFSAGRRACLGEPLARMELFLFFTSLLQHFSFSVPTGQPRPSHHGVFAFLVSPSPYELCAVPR

[31] = biological target: Cytochrome P450 3A4 (Homo sapiens, UniProt P08684); test: Inhibition of human microsomal CYP3A4 expressed in baculovirus infected BTI-TN-5B1-4 cells incubated for 30 mins by luciferase assay; assay type: ADME
Cytochrome P450 3A4, sequence (P08684 whole entry): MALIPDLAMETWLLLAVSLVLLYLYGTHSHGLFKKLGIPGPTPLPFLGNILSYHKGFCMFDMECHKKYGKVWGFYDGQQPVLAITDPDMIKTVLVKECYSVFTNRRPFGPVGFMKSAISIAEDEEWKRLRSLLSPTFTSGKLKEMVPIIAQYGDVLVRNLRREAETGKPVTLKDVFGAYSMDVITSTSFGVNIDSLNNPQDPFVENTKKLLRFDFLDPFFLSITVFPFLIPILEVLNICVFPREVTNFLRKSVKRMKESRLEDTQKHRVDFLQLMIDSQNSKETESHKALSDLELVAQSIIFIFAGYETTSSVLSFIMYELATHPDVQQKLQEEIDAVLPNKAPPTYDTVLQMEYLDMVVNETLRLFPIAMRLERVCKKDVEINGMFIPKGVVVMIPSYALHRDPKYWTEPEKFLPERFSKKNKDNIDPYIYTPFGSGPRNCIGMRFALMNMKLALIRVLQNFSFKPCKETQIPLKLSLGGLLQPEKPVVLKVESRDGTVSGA

[32] = Drug uptake in NMRI mouse plasma at 4 mg/kg, po administered with cyclodextrins by HPLC analysis; assay type: ADME, organism-based; settings: in vivo
[33] = tested on: Trypanosoma brucei brucei; test: Antitrypanosomal activity against Trypanosoma brucei brucei Lister 427 bloodstream forms compound treated through encapsulation in PLGA nanoparticles after 72 hrs by resazurin-based assay; assay type: functional, organism-based; settings: Lister 427, 72 h
[34] = tested on: Trypanosoma brucei brucei; test: Antitrypanosomal activity against Trypanosoma brucei brucei Lister 427 bloodstream forms compound treated with cyclodextrins after 72 hrs by resazurin-based assay; assay type: functional, organism-based; settings: Lister 427, 72 h
[35] = Cytotoxicity against human THP1 cells compound treated through encapsulation in PLGA nanoparticles after 72 hrs by MTT assay; assay type: cell-based; settings: THP-1 cells, read-out: NOAEL
[36] = Cytotoxicity against human THP1 cells compound treated with cyclodextrins after 72 hrs by MTT assay; assay type: cell-based; settings: THP-1 cells, read-out: NOAEL
[37] = tested on: Trypanosoma brucei brucei; test: Antitrypanosomal activity against Trypanosoma brucei brucei Lister 427 bloodstream forms assessed as synergy coefficient at 2.5 to 5 uM after 72 hrs in presence of MTX by resazurin-based assay; assay type: functional
[38] = tested on: Trypanosoma brucei brucei; test: Antitrypanosomal activity against Trypanosoma brucei brucei Lister 427 bloodstream forms assessed as maximum synergy coefficient at 1.25 after 72 hrs in presence of MTX by resazurin-based assay; assay type: functional
[39] = biological target: CYP1A2 (Homo sapiens, UniProt P05177); test: as §2; assay type: ADME
[40] = tested on: THP-1; test: Cytotoxicity against human THP1 cells at 12.5 to 50 uM after in presence of MTX by MTT assay; assay type: cell-based; settings: thp-1, 50 µM
[41] = tested on: Leishmania infantum; test: Antiparasitic activity against Leishmania infantum MOM/MA67ITMAP263 amastigotes infected in human THP1 cell after 72 hrs by steady-glo luminescence assay; assay type: functional, organism-based; settings: MOM/MA67ITMAP263, THP-1, 72 h
[42] = tested on: Trypanosoma brucei; test: as §1

O=c1c(O)c(-c2cc(O)c(O)c(O)c2)oc2cc(O)ccc12 [ROBINETIN]
pEC50 [1]: 4.74
inhibition [2]: 85%
inhibition [3]: < 25%
inhibition [4]: < 25%
inhibition [5]: < 30%
inhibition [6]: inactive
Activity [7]: Non-Toxic
Activity [8]: Non-Toxic
Activity [9]: Non-Toxic
inhibition [10]: Active
Activity [11]: 10%
MNTC at 72 h [12]: 100 µM
selectivity ratio [13]: 5

CC1CS(=O)(=O)CCN1/N=C/c1ccc([N+](=O)[O-])o1 (stereo unspecified) [NIFURTIMOX]
pIC50 [14]: 5.66

O=c1c(O)c(-c2cccc(O)c2)oc2ccc(O)cc12
pIC50 [15]: 5.37
pIC50 [16]: 4.30
pEC50 [1]: 5.12
inhibition [2]: 96%
inhibition [17]: 86%
inhibition [3]: 42 to 43%
inhibition [4]: 42 to 43%
inhibition [6]: inactive
pIC50 [18]: 4.00
Activity [7]: Non-Toxic
Activity [8]: Non-Toxic
Activity [9]: Non-Toxic
solubility [19]: Soluble
half-life [20]: 7.6 min
Drug uptake [21]: Not Active
Drug uptake [22]: Not Active
Drug uptake [23]: Not Active
Activity [24]: Active
CC50 at 72 h [12]: 53 µM
CI [25]: >1
inhibition (INH) [26]: Not Active
pIC50 [27]: 5.21
pIC50 [28]: < 5.00
pIC50 [29]: < 5.00
pIC50 [30]: < 5.00
pIC50 [31]: < 5.00
Drug uptake [32]: Not Active
pEC50 [33]: 5.24
pEC50 [34]: 5.49
MNTC at 72 h [35]: > 100 µM
MNTC at 72 h [36]: > 100 µM
selectivity ratio [13]: 7

O=c1c(O)c(-c2ccc(O)cc2)oc2cc(O)ccc12 [RESOKAEMPFEROL]
pEC50 [1]: 5.37
inhibition [2]: 33%
inhibition [3]: < 25%
inhibition [4]: < 25%
inhibition [5]: < 30%
inhibition [6]: inactive
Activity [7]: Non-Toxic
Activity [8]: Non-Toxic
Activity [9]: Non-Toxic
Activity [24]: Active
MNTC at 72 h [12]: 20 µM
CI [25]: >1.5
inhibition (INH) [26]: Not Active
CI [37]: >1.5
selectivity ratio [13]: 4

COc1ccc(-c2oc3ccc(OC)cc3c(=O)c2O)cc1
Activity [7]: Non-Toxic
Activity [8]: Non-Toxic
Activity [9]: Non-Toxic
Activity [24]: Active
MNTC at 72 h [12]: 20 µM
CI [38]: 3.1
inhibition at 0.5 h, 10 µM [39]: 72%
Activity [40]: Non-Toxic
CI [37]: >1.5
selectivity ratio [13]: 1

COc1ccc2c(=O)c(O)c(-c3cc(OC)c(OC)c(OC)c3)oc2c1
inhibition [2]: inactive
Activity [7]: Non-Toxic
Activity [8]: Non-Toxic
Activity [9]: Non-Toxic
Activity [11]: 35%
MNTC at 72 h [12]: 20 µM
inhibition (INH) [26]: Not Active
selectivity ratio [13]: 17

CCCCCCCCCCCCCCCCOP(=O)([O-])OCC[N+](C)(C)C [MILTEFOSINE]
pIC50 [41]: 5.58

O=c1c(O)c(-c2ccc(O)c(O)c2)oc2cc(O)cc(O)c12
inhibition [42]: inactive
pIC50 [1]: > 4.52

O=c1c(O)c(-c2ccc(O)c(O)c2)oc2cc(O)ccc12 [FISETIN]
inhibition [2]: 53%
inhibition [3]: < 25%
inhibition [4]: < 25%
inhibition [5]: < 30%
inhibition [6]: inactive
Activity [7]: Non-Toxic
Activity [8]: Non-Toxic
Activity [9]: Non-Toxic
inhibition [10]: Active
